Source: article PMC11235583, “Structural basis of odor sensing by insect heteromeric odorant receptors” (Science (New York, N.Y.), 2024)
Values belong to the molecule of their own block, whether it stands above or below them.

How the values were obtained:
[1] = target: T1, AaOR10/Orco (Ae. aegypti OR10 with A. bakeri Orco) (Aedes aegypti, UniProt Q177X3); assay: whole-cell voltage clamp, HEK293T cells; format: cell-based; conditions: agonist
T1 construct: gene GPRor10; co-expressed in HEK293 cells; with Odorant receptor coreceptor (Apocrypta bakeri)
T1 sequence (Q177X3 1-375): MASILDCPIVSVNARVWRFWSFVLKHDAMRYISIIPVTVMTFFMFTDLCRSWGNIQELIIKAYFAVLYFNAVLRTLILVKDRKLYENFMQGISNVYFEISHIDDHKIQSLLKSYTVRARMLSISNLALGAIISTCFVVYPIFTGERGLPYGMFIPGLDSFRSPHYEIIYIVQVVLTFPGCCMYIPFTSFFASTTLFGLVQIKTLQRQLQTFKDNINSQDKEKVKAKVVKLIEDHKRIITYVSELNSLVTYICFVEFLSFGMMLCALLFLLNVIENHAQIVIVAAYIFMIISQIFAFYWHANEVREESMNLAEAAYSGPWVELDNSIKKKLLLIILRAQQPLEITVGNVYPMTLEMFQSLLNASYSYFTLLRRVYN
T1 sequence (B0FAQ4 1-474 partner): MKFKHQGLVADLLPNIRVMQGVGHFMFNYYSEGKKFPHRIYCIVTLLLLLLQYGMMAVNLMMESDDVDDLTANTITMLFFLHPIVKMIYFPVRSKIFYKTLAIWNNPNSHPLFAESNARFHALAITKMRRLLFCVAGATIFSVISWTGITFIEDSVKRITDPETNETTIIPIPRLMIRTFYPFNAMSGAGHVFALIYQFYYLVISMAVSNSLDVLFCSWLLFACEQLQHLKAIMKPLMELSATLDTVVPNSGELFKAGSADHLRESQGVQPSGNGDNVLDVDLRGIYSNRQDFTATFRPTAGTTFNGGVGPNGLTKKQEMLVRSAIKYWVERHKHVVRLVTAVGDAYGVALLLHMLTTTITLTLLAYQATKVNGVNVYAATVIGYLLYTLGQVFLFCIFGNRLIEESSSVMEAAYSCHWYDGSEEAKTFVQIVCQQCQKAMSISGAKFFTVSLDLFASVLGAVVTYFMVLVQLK
Excerpt: whole-cell voltage clamp, HEK293T cells on AaOR10/Orco (Ae. aegypti OR10 with A. bakeri Orco) | whole-cell currents of AaOR10/Orco are indistinguishable in EC50 and overall dose-response parameters | measure their response to indole and o-cresol, canonical odorants known to activate AaOR10 heteromers

[2] = target: T2, AaOR10 in complex with the Orco from Ae. aegypti (Aedes aegypti, UniProt Q177X3); assay: whole-cell voltage clamp, HEK293T cells; format: cell-based; conditions: agonist
T2 construct: gene GPRor10; both subunits from Ae. aegypti, co-expressed in HEK293T cells; stoichiometry not determined; with Odorant receptor coreceptor
T2 sequence (Q177X3 1-375): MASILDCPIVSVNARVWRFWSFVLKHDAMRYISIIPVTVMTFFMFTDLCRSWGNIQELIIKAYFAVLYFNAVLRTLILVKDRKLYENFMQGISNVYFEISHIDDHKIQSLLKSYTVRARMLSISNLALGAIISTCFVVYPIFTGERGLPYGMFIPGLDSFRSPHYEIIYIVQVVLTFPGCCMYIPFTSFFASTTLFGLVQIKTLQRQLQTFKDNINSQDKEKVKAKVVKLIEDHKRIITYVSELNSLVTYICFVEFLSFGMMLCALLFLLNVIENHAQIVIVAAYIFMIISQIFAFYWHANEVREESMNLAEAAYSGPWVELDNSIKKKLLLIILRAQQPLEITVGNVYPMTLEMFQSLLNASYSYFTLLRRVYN
T2 sequence (Q178U6 1-478 partner): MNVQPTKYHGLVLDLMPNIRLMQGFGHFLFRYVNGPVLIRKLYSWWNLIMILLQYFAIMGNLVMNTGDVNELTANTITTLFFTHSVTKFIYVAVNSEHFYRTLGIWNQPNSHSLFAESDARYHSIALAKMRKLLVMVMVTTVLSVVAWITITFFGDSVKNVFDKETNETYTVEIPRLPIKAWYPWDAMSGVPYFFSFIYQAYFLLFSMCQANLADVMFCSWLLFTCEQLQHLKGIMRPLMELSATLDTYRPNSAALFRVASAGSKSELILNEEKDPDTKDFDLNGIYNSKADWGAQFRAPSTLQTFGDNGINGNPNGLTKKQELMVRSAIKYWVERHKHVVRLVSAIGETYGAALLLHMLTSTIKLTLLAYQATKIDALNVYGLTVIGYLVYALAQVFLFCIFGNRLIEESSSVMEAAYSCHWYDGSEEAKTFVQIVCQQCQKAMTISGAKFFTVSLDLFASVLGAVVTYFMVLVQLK
Excerpt: whole-cell voltage clamp, HEK293T cells on AaOR10 in complex with the Orco from Ae. aegypti | those obtained with AaOR10 in complex with the Orco from Ae. aegypti | AaOR10 with either A. bakeri (black) or Ae. aegypti Orco (gold)

[3] = target: T1, AaOR10/Orco (Ae. aegypti OR10 with A. bakeri Orco); assay: cryo-EM structure of complex; format: binding; conditions: 2.9 Å; one site, in the OR10 subunit (S2, S3, S4, S6)
[4] = target: Anopheles gambiae odorant receptor OR28 (Anopheles gambiae); assay: cryo-EM structure; AgOR28 co-expressed with A. bakeri Orco, purified complex; unbound and 2,4,5-trimethylthiazole (TMT)-bound states
[5] = target: Aedes aegypti odorant receptor OR10 (Aedes aegypti); assay: cryo-EM structure; AaOR10/Orco heteromers co-expressed in HEK293 cells (1:1 OR to Orco virus), purified by an affinity tag on the OR subunit, in detergent micelle; unbound and o-cresol-bound states
[6] = far from saturation at high concentration, limiting goodness of fit

Molecule: c1ccc2[nH]ccc2c1 [indole]
- EC50 ([1]; Hill coefficient about one): 1.09 µM
- EC50 [2]: 1.51 µM

Molecule: Cc1ccccc1O [o-cresol]
- EC50 [1, 6]: 13.3 µM
- EC50 [2, 6]: 11.3 µM
- cryo-EM structure of complex [3]: determined the cryo-EM structure of the AaOR10/Orco complex bound to o-cresol

- stoichiometry N (Orco subunits per OR subunit) [4]: 3
- stoichiometry N (Orco subunits per OR subunit) [5]: 3
B1: Apocrypta bakeri odorant receptor co-receptor Orco (receptor)
chain: MKFKHQGLVADLLPNIRVMQGVGHFMFNYYSEGKKFPHRIYCIVTLLLLLLQYGMMAVNLMMESDDVDDLTANTITMLFFLHPIVKMIYFPVRSKIFYKTLAIWNNPNSHPLFAESNARFHALAITKMRRLLFCVAGATIFSVISWTGITFIEDSVKRITDPETNETTIIPIPRLMIRTFYPFNAMSGAGHVFALIYQFYYLVISMAVSNSLDVLFCSWLLFACEQLQHLKAIMKPLMELSATLDTVVPNSGELFKAGSADHLRESQGVQPSGNGDNVLDVDLRGIYSNRQDFTATFRPTAGTTFNGGVGPNGLTKKQEMLVRSAIKYWVERHKHVVRLVTAVGDAYGVALLLHMLTTTITLTLLAYQATKVNGVNVYAATVIGYLLYTLGQVFLFCIFGNRLIEESSSVMEAAYSCHWYDGSEEAKTFVQIVCQQCQKAMSISGAKFFTVSLDLFASVLGAVVTYFMVLVQLK
